Measured values as given in PMC12022973, “Proteomimetic Strategy for the Modulation of Intrinsically Disordered Protein MYC” (Journal of the American Chemical Society, 2025).
Starred links: 1 amine or outer side, 2 acyl side, 3 side chain; linkers in the order of their positions; H or OH if unused. Positions of bridges follow the written chain, without caps; N, C: chain ends. Residues, ends and D or L forms follow the SMILES beside them. Chains are numbered I, II in the order given. *: point of attachment. FITC = O=C1OC2(c3ccc(O)cc3Oc3cc(O)ccc32)c2ccc(NC(=S)*)cc21; X1 = c1cc(C[*:1])ccc1COCc1ccc(C[*:2])cc1; βAla = NCCC(=O)O

What was measured:
[1] = molecular target: T1, recombinant human MYC^353–437 protein (His6-MYC^353–437) (Homo sapiens, UniProt P01106); assay: Fluorescence polarization direct binding of fluorescein-labeled CHDs to His6-MYC353-437; conditions: FP direct binding; 15 nM FITC-labeled peptide; His6-MYC serial dilutions from 10 μM; 1X PBS, 1 mM DTT, 5% glycerol, 0.1% pluronic acid, pH 6.7; 25 °C; triplicate; MYC aggregates above 5 μM; read-out: Binding Affinity MYC^353-436, Kd
T1 construct: recombinant human MYC^353–437 protein; made in house; host or cells: E. coli BL21(DE3), pET151-D-TOPO-cMyc vector
Protocol: pET151-D-TOPO-cMyc vector was kindly provided by Dr. Edward Prochownik from the
Department of Pediatrics at UPMC Children’s Hospital of Pittsburgh. Expression and purification
of Myc353-437 were performed using an established protocol with minor modifications.7 BL21(DE3)
cells were used to express recombinant Myc353-437 protein. Bacteria were grown at 37 °C to OD600
of 0.8 followed by 1 mM IPTG induction and 16-18h growth at RT. Cells were harvested via
centrifugation at 4,000 rpm at 4 °C and the pellet was resuspended in 10 mL of lysis buffer (8 M
urea, 100 mM NaH2PO4, 10 mM Tris HCl, pH 8) supplemented with protease inhibitor cocktail
(PierceTM Protease Inhibitor Tablets) and benzonase nuclease. Suspensions were sonicated on
ice using a Branson Cell Disruptor 200 and centrifuged at 12,000 rpm for 45 min at 4 °C. Clarified
lysate was applied to a column containing pre-equilibrated HisPur Ni-NTA Superflow Agarose
(ThermoFisher Scientific) for overnight at 4 °C. The resin beads were washed with 10 mL of
additional lysis buffer followed by three washes of 10 mL wash buffer (8 M urea, 100 mM
NaH2PO4, 10 mM Tris HCl, 10 mM imidazole). The target protein was eluted with elution buffer (8
M urea, 100 mM NaH2PO4, 10 mM Tris HCl, 250 mM imidazole) and buffer exchanged into 150
mM NaCl, 50 mM Tris HCl, 5% glycerol, pH 6.7. Protein was concentrated by ultra-filtration (3000
MWCO; Amicon Ultra-15 Centrifugal Filter units from EMD Millipore) followed by TEV cleavage
(1:100 w/w of protease to target protein) in 150 mM NaCl, 50 mM Tris HCl, 5% glycerol, pH 6.7
for 24 hrs at 4 °C. The cleaved protein is further purified by reverse-phase HPLC (gradient 10-60
acetonitrile/water with 0.1% TFA over 35 min) to remove TEV protease and un-cleaved protein.
Purified Myc353-437 was lyophilized and stored at -20 °C. Myc353-437 identity was characterized by
(§1) Fluorescence Polarization Binding Assay
(§2) The relative affinities of FITC-CHDMax-1 to His6-Myc353-436 and full-length His6-Max were
(§3) determined using fluorescence polarization-based direct binding assay. The polarization
(§4) experiments were performed using a DTX 880 Multimode Detector (Beckman) at 25 °C with
(§5) excitation and emission wavelengths of 485 and 525 nm, respectively. Each polarization
(§6) experiment was performed in a 96-well round bottom plate (Greiner) in assay buffer: 1X PBS, 1
(§7) mM DTT, 5% glycerol, 0.1% pluronic acid, pH 6.7. The binding affinity (KD) values reported for
(§8) each peptide are from experiments performed in triplicate. Raw values were fit to a sigmoidal
(§9) dose-response nonlinear regression model in GraphPad Prism 6.0.
(§10) All binding experiments with FITC-labeled peptides to His6-Myc353-436 or His6-Max were performed
(§11) under the same conditions. Briefly, serial dilutions of His6-Myc353-436 and His6-Max were made
(§12) from 10 μM into 15 nM of FITC-labeled peptide in assay buffer. KD was determined using the
(§13) KD1 = (RT*(1-FSB) + LST*FSB2)/FSB-LST
(§14) RT = Total concentration of His6-Myc353-436 or His6-Max
(§15) LST = Total concentration of FITC-labeled peptide
(§16) FSB = Fraction of bound FITC-labeled peptide

[2] = molecular target: T2, full-length His6-Max (MAX^1-160) (Homo sapiens, UniProt P61244); assay: Fluorescence polarization direct binding to His6-MAX; conditions: FP direct binding; 15 nM FITC-labeled peptide; His6-MAX from 10 μM; 1X PBS, 1 mM DTT, 5% glycerol, 0.1% pluronic acid, pH 6.7; 25 °C
T2 construct: N.B. (MAX^1-160)
Protocol: as §1, §2, §3, §4, §5, §6, §7, §8, §9, §10, §11, §12, §13, §14, §15, §16

T1 sequence (P01106 368-452): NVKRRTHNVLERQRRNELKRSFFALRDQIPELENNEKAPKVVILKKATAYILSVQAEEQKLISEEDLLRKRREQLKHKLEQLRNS
T2 sequence (P61244 whole entry): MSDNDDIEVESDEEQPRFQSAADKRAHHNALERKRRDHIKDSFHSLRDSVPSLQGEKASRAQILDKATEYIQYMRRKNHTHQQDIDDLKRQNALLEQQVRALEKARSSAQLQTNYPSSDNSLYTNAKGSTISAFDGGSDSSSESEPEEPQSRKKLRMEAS

`CC[C@H](C)[C@H](NC(=O)[C@H](CCCCN)NC(=O)[C@H](CCC(=O)O)NC(=O)[C@H](CCCNC(=N)N)NC(=O)[C@H](CC(C)C)NC(C)=O)C(=O)N[C@@H](C)C(=O)N[C@H](C(=O)N[C@@H](CC(C)C)C(=O)N[C@@H](CCC(N)=O)C(=O)N[C@@H](Cc1c[nH]c2ccccc12)C(=O)N[C@@H](CSCc1ccc(COCc2ccc(CSC[C@H](NC(=O)[C@H](CC(C)C)NC(=O)[C@H](CCC(=O)O)NC(=O)[C@H](CCCNC(=N)N)NC(=O)[C@@H](NC(=O)[C@H](CCCNC(=N)N)NC(=O)[C@H](Cc3c[nH]c4ccccc34)NC(=O)[C@H](CCC(N)=O)NC(=O)[C@H](Cc3c[nH]cn3)NC(=O)[C@@H](NC(=O)[C@H](CCC(=O)O)NC(=O)[C@@H](NC(=O)[C@H](CCCNC(=N)N)NC(=O)[C@H](C)NC(=O)[C@H](CCC(=O)O)NC(=O)[C@H](CC(C)C)NC(C)=O)[C@@H](C)CC)[C@@H](C)O)[C@@H](C)CC)C(=O)N[C@@H](CCC(=O)O)C(N)=O)cc2)cc1)C(=O)N[C@H](C(=O)N[C@@H](CCC(=O)O)C(=O)N[C@@H](CCC(=O)O)C(=O)N[C@@H](CC(C)C)C(=O)N[C@@H](CCCNC(=N)N)C(=O)N[C@@H](CCCCN)C(N)=O)[C@@H](C)CC)[C@@H](C)O` [CHD^Max-2] (I: Ac-LEARIETHQWRIRELCE-NH2 / II: Ac-LREKIATLQWCIEELRK-NH2; linker I:16-II:11 via X1) gave a Kd [1] of 880 ± 53 nM.

For `CC[C@H](C)[C@H](NC(=O)[C@H](CCC(=O)O)NC(=O)[C@H](Cc1c[nH]c2ccccc12)NC(=O)[C@H](CCC(N)=O)NC(=O)[C@H](C)NC(=O)[C@@H](NC(=O)[C@H](CCC(=O)O)NC(=O)[C@H](C)NC(=O)[C@H](CCCCN)NC(=O)[C@H](CCCNC(=N)N)NC(=O)[C@H](CCCNC(=N)N)NC(=O)[C@H](CC(C)C)NC(C)=O)[C@@H](C)O)C(=O)N[C@@H](CCC(=O)O)C(=O)N[C@@H](CCC(=O)O)C(=O)N[C@@H](CC(C)C)C(=O)N[C@@H](CSCc1ccc(COCc2ccc(CSC[C@H](NC(=O)[C@H](Cc3c[nH]c4ccccc34)NC(=O)[C@H](CCC(N)=O)NC(=O)[C@H](CC(C)C)NC(=O)[C@@H](NC(=O)[C@H](C)NC(=O)[C@H](C)NC(=O)[C@H](CCCCN)NC(=O)[C@H](CCC(=O)O)NC(=O)[C@H](CCCNC(=N)N)NC(=O)[C@H](CC(C)C)NC(C)=O)[C@@H](C)O)C(=O)N[C@H](C(=O)N[C@@H](CCC(=O)O)C(=O)N[C@@H](CCC(=O)O)C(=O)N[C@@H](CC(C)C)C(=O)N[C@@H](CCCNC(=N)N)C(=O)N[C@@H](CCCCN)C(N)=O)[C@@H](C)CC)cc2)cc1)C(N)=O` [CHD^Max-3] (I: Ac-LREKAATLQWCIEELRK-NH2 / II: Ac-LRRKAETAQWEIEELC-NH2; linker I:11-II:16 via X1), the Kd [1] was > 5000 nM.

`CC[C@H](C)[C@H](NC(=O)[C@H](CCCCN)NC(=O)[C@H](CCC(=O)O)NC(=O)[C@H](CCCNC(=N)N)NC(=O)[C@H](CC(C)C)NC(=O)CCNC(=S)Nc1ccc2c(c1)C(=O)OC21c2ccc(O)cc2Oc2cc(O)ccc21)C(=O)N[C@@H](C)C(=O)N[C@H](C(=O)N[C@@H](CC(C)C)C(=O)N[C@@H](CCC(N)=O)C(=O)N[C@@H](Cc1c[nH]c2ccccc12)C(=O)N[C@@H](CSCc1ccc(COCc2ccc(CSC[C@H](NC(=O)[C@H](CC(C)C)NC(=O)[C@H](CCC(=O)O)NC(=O)[C@H](CCC(=O)O)NC(=O)[C@@H](NC(=O)[C@H](CCC(=O)O)NC(=O)[C@H](Cc3c[nH]c4ccccc34)NC(=O)[C@H](CCC(N)=O)NC(=O)[C@H](Cc3c[nH]cn3)NC(=O)[C@@H](NC(=O)[C@H](CCC(=O)O)NC(=O)[C@H](CC(N)=O)NC(=O)[C@H](CCCCN)NC(=O)[C@H](CCCNC(=N)N)NC(=O)[C@H](CCCNC(=N)N)NC(=O)[C@H](CC(C)C)NC(C)=O)[C@@H](C)O)[C@@H](C)CC)C(N)=O)cc2)cc1)C(=O)N[C@H](C(=O)N[C@@H](CCC(=O)O)C(=O)N[C@@H](CCC(=O)O)C(=O)N[C@@H](CC(C)C)C(=O)N[C@@H](CCCNC(=N)N)C(=O)N[C@@H](CCCCN)C(N)=O)[C@@H](C)CC)[C@@H](C)O` [FITC–CHD^Max-1] (I: {FITC-βAla}-LREKIATLQWCIEELRK-NH2 / II: Ac-LRRKNETHQWEIEELC-NH2; linker I:11-II:16 via X1) was tested, and the Kd [1] was 350 ± 17 nM and the “CHD^Max-1 Binding Affinity, Kd (MAX^1-160)” value [2] was “no binding was observed”.

`CC[C@H](C)[C@H](NC(=O)[C@H](CCC(=O)O)NC(=O)[C@H](Cc1c[nH]c2ccccc12)NC(=O)[C@H](CCC(N)=O)NC(=O)[C@H](C)NC(=O)[C@@H](NC(=O)[C@H](CCC(=O)O)NC(=O)[C@H](C)NC(=O)[C@H](CCCCN)NC(=O)[C@H](CCCNC(=N)N)NC(=O)[C@H](CCCNC(=N)N)NC(=O)[C@H](CC(C)C)NC(C)=O)[C@@H](C)O)C(=O)N[C@@H](CCC(=O)O)C(=O)N[C@@H](CCC(=O)O)C(=O)N[C@@H](CC(C)C)C(=O)N[C@@H](CSCc1ccc(COCc2ccc(CSC[C@H](NC(=O)[C@H](Cc3c[nH]c4ccccc34)NC(=O)[C@H](CCC(N)=O)NC(=O)[C@H](CC(C)C)NC(=O)[C@@H](NC(=O)[C@H](C)NC(=O)[C@H](C)NC(=O)[C@H](CCCCN)NC(=O)[C@H](CCC(=O)O)NC(=O)[C@H](CCCNC(=N)N)NC(=O)[C@H](CC(C)C)NC(=O)CCNC(=S)Nc3ccc4c(c3)C(=O)OC43c4ccc(O)cc4Oc4cc(O)ccc43)[C@@H](C)O)C(=O)N[C@H](C(=O)N[C@@H](CCC(=O)O)C(=O)N[C@@H](CCC(=O)O)C(=O)N[C@@H](CC(C)C)C(=O)N[C@@H](CCCNC(=N)N)C(=O)N[C@@H](CCCCN)C(N)=O)[C@@H](C)CC)cc2)cc1)C(N)=O` [FITC–CHD^Max-3] (I: {FITC-βAla}-LREKAATLQWCIEELRK-NH2 / II: Ac-LRRKAETAQWEIEELC-NH2; linker I:11-II:16 via X1) was tested, and the Kd [1] was > 5000 nM.
